Where two headings read alike, the source gives them in different places.
Experiments:
KMS-11 = experiment: Cell growth inhibition test, KMS-11; assay type: cell-based; conditions: Homo sapiens, 240 h; KMS-11, culture time 10 days; read-out: Cell growth inhibitory activity (GI50, nM) KMS-11
Procedure: (§1) In order to confirm the inhibitory effects of the synthetic compounds against the growth of blood cancer cell lines, evaluation was performed against KARPAS 422, RPMI 8226, KMS-11, JeKo-1, MV-4-11, Mino, Pfeiffer, SU-DHL-4, and RS4; 11 cell lines. A test for the Pfeiffer and SU-DHL-4 cell lines was performed by KYinno Co., Ltd., a test for the RS4; 11 cell line was performed by Shanghai Chempartner Co., Ltd., and a test for the Kasumi-1, MV-4-11, MM.1S, KMS-11, JeKo-1, Mino (ATCC), RPMI 8226 (KCLB), and KARPAS 422 (ECACC) cell lines was performed after purchase.
(§2) DMSO at a final concentration of 0.1% or less or a DMSO solution of each of the synthetic compounds was added to media to have the concentration and treatment time described in Table 5 below, and cells were cultured at 37° C. under 5% CO2. Each type of the cultured cells was seeded in 6-well plates or 48-96 well plates, and subculture or medium replacement was performed every 3 to 4 days. Next, the cells were subcultured for a total of 7 to 14 days, and then seeded in 96-well plates. 3 to 5 days before the measurement of the effect, the cells were seeded in 96-well plates, and then the absorbance (Tz) on the day of seeding was measured. The absorbance after the reaction was measured by the plate reader device Synergy NeoAlpha (Biotek) using Cell-Titer-Glo Cell Viability Assay (Promega, G7573) according to the attached manual. Based on the absorbance (Tz) measured on the seeding day and the absorbance of each of the DMSO-treated group (C) and the sample-added group (Ti) measured on the day of effect determination, the percentage of cell proliferation inhibition was calculated according to the following Equation 1. [(Ti−Tz)/(C−Tz)]×100 for concentrations for which Ti≥Tz […] for concentrations for which Ti<Tz. [Equation 1]

Mino = experiment: Cell growth inhibition test, Mino; assay type: cell-based; conditions: Homo sapiens, 336 h, culture time 14 days, read-out: Cell growth inhibitory activity (GI50, nM) Mino
Procedure: as §1, §2

RPMI8226 = experiment: Cell growth inhibition test, RPMI8226; assay type: cell-based; conditions: Homo sapiens, RPMI-8226, 168 h; RPMI8226, culture time 7 days; read-out: Cell growth inhibitory activity (GI50, nM) RPMI8226
Procedure: as §1, §2

[1] = tested on: KARPAS-422 (EZH2 Y641N mutation); experiment: Cell growth inhibition test, KARPAS-422; assay type: cell-based; conditions: KARPAS-422, culture time 7 days, read-out: Cell growth inhibitory activity (GI50, nM) KARPAS-422 (EZH2 Y641N mutation)
[2] = Mouse pharmacokinetics, oral single dose; assay type: in vivo; conditions: male, ICR, mouse, plasma, po, 30 mg/kg, mice (ICR, male), oral single dose 30 mg/kg; for AUC: read-out: Area under oral curve (AUC); for half-life: read-out: Half life T1/2 (converted)
Procedure: Pharmacokinetics of the synthetic compounds as EZH2 inhibitors in mice (ICR, 8-week-old, male) were tested.
The oral administration group was maintained in a fasting state from the day before the test to 4 hours after administration of the test compound. On the day of administration of the test compound, the weight of each animal was measured and each synthetic compound was formulated using a selected solvent based on 30 mg/kg (10 mL/kg). Each test compound was administered orally in a single dose, a certain amount of the blood was taken at a predetermined time, plasma was isolated therefrom, and the concentration of each test compound in the plasma was analyzed using LC-MS/MS (Waters UPLC H-Class/Xevo TQ; Waters, USA). Pharmacokinetic coefficients were calculated by a linear-log trapezoidal summation formula using a non-compartment analysis of the Phoenix™ WinNonlin (Certara, USA) program through the plasma concentration curve over time.

MV4-11 = experiment: Cell growth inhibition test, MV4-11; assay type: cell-based; conditions: Homo sapiens, 240 h; MV4-11, culture time 10 days; read-out: Cell growth inhibitory activity (GI50, nM) MV4-11
Procedure: as §1, §2

RS4;11 = experiment: Cell growth inhibition test, RS4;11; assay type: cell-based; conditions: Homo sapiens, read-out: Cell growth inhibitory activity (GI50, nM) RS4;11
Procedure: as §1, §2

[3] = Metabolic stability in dog liver microsomes; assay type: in vitro ADME; conditions: 5 μM compound, 1 mg/mL dog liver microsomes, 37° C., NADPH regenerating system
Procedure: (§3) In order to confirm the metabolic stability of the synthetic compounds in the liver, 5 μM test compound and 1 mg/mL human, dog, rat or mouse liver microsomes were allowed to react with each other at 37° C. in the presence of the NADPH regenerating system for 1 hour. After 1 hour, the reaction was terminated and the supernatant obtained by centrifugation was analyzed by HPLC. With the peak value obtained as the analysis result, the residual amount (%) was calculated using the following equation through the peak value of the test compound after 1 hour of the reaction versus the peak value of the test compound at 0 min. Residual amount (%)=(peak value of test compound after 1 hour of reaction/peak value of test compound at 0 min)×100

[4] = Metabolic stability in rat liver microsomes; assay type: in vitro ADME; conditions: 5 μM compound, 1 mg/mL rat liver microsomes, 37° C., NADPH regenerating system
Procedure: as §3

JeKo-1 = experiment: Cell growth inhibition test, JeKo-1; assay type: cell-based; conditions: Homo sapiens, 240 h; JeKo-1, culture time 10 days; read-out: Cell growth inhibitory activity (GI50, nM) JeKo-1
Procedure: as §1, §2

SU-DHL-4 = experiment: Cell growth inhibition test, SU-DHL-4; assay type: cell-based; conditions: Homo sapiens, read-out: Cell growth inhibitory activity (GI50, nM) SU-DHL-4
Procedure: as §1, §2

[5] = tested on: Pfeiffer (EZH2 A677G mutation); experiment: Cell growth inhibition test, Pfeiffer; assay type: cell-based; conditions: Homo sapiens, read-out: Cell growth inhibitory activity (GI50, nM) Pfeiffer (EZH2 A677G mutation)
Procedure: as §2, with “Each” for “DMSO at a final concentration of 0.1% or less or a DMSO solution of each of the synthetic compounds was added to media to have the concentration and treatment time described in Table 5 below, and cells were cultured at 37° C. under 5% CO2. Each”

MM.1S = experiment: Cell growth inhibition test, MM.1S; assay type: cell-based; conditions: Homo sapiens, MM1.S, 264 h, culture time 11 days, read-out: Cell growth inhibitory activity (GI50, nM) MM.1S
Procedure: as §1, §2

[6] = Metabolic stability in mouse liver microsomes; assay type: in vitro ADME; conditions: 5 μM compound, 1 mg/mL mouse liver microsomes, 37° C., NADPH regenerating system
Procedure: as §3

Kasumi-1 = experiment: Cell growth inhibition test, Kasumi-1; assay type: cell-based; conditions: Homo sapiens, 240 h; Kasumi-1, culture time 10 days; read-out: Cell growth inhibitory activity (GI50, nM) Kasumi-1
Procedure: as §1, §2

[7] = Metabolic stability in human liver microsomes; assay type: in vitro ADME; conditions: 5 μM compound, 1 mg/mL human liver microsomes, 37° C., NADPH regenerating system
Procedure: as §3

EZH2 = EZH2 (Homo sapiens, UniProt Q15910); experiment: Inhibitory activity against EZH2 methyltransferase (radiometric scintillation proximity assay); conditions: Enzyme inhibitory activity (IC50, nM) EZH2, 2.3 nmol/L enzyme, 90 minutes, room temperature;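 further: Read-out is substrate peptide methylation, captured on streptavidin-coated SPA beads and counted by scintillation, with the reaction run in Tris-HCl buffer at pH 8.0 containing 1% DMSO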
Procedure: (§4) The inhibitory activities of the synthetic compounds against EZH1 or EZH2 methyltransferase were measured. The experiment was conducted by Reaction Biology Corp., and the activity of EZH1 or EZH2 was measured using a radiometric scintillation proximity assay. […] The reaction buffer consisted of 50 mmol/L Tris-HCl (pH 8.0), 50 mmol/L NaCl, 1 mmol/L EDTA, 1 mmoL/L DTT, 1 mmol/L PMSF, and 1% DMSO. Trichloroacetic acid was added to terminate the reaction, and PVT streptavidin-coated SPA beads were added to each reaction solution, followed by further reaction at room temperature for 1 hour again. The methylation value of the substrate peptide was measured using the TopCount NXT plate reader.

EZH1 = molecular target: T1, EZH1 (Homo sapiens, UniProt Q92800); experiment: Inhibitory activity against EZH1 methyltransferase (radiometric scintillation proximity assay); assay type: biochemical; conditions: 2.3 nmol/L enzyme, 90 minutes, room temperature;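 further: Read-out is methylation of a substrate peptide, captured on streptavidin-coated SPA beads and counted by scintillation, in Tris-HCl buffer at pH 8.0 with 1% DMSO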
T1 construct: purchased Reaction Biology Corp. (contract assay)
Procedure: as §4

[8] = Homo sapiens, KARPAS-422, 168 h

T1 sequence (Q92800 whole entry): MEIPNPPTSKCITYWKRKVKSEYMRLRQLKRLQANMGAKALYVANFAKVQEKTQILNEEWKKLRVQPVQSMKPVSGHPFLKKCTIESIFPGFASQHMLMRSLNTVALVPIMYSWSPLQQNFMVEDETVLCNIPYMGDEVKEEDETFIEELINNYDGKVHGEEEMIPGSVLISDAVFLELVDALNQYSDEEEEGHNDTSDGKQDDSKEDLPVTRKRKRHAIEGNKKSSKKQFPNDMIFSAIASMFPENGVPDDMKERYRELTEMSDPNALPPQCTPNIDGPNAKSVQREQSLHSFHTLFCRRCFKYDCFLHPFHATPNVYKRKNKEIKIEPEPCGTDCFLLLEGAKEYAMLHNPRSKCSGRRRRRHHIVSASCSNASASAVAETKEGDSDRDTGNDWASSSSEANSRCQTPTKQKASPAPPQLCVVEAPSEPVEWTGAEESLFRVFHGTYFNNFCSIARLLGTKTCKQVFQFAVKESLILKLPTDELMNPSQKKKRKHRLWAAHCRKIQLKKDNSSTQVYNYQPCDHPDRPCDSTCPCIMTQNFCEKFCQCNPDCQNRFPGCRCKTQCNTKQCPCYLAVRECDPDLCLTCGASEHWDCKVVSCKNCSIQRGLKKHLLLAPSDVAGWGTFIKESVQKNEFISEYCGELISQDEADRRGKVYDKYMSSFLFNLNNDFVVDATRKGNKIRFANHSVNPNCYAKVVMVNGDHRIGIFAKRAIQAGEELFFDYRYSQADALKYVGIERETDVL
T1 sequence (O75530 whole entry partner): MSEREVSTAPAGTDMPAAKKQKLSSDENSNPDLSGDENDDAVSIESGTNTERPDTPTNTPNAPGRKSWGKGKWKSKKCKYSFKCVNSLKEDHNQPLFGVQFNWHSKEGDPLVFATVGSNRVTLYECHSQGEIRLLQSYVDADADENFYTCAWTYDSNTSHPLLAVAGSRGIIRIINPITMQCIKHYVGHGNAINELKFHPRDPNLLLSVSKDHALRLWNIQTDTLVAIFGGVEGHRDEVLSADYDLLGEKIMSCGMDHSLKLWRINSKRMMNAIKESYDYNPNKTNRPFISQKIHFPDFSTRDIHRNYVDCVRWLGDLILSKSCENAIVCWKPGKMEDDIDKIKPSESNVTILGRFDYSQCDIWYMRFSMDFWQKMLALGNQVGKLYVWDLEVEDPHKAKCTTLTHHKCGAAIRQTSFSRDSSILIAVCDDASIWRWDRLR
T1 sequence (Q15022 whole entry partner): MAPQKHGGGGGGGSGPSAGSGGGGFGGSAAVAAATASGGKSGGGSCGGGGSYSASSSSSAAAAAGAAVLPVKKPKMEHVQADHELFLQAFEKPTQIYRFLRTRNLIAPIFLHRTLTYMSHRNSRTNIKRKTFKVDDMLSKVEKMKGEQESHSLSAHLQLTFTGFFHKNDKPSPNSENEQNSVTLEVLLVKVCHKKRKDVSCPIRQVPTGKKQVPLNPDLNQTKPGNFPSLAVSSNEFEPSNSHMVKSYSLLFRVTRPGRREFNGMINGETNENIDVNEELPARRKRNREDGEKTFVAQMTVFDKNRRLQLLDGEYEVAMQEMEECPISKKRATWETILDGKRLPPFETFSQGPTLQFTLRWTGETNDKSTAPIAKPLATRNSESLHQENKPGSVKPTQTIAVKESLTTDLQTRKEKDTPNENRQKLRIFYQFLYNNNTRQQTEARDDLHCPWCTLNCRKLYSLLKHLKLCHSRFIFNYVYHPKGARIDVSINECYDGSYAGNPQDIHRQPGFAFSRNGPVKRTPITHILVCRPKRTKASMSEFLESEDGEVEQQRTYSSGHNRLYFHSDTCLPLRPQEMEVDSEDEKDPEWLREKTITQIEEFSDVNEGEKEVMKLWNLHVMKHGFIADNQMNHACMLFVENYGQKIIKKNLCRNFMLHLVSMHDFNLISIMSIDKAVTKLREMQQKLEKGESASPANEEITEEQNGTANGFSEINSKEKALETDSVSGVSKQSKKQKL
T1 sequence (Q09028 whole entry partner): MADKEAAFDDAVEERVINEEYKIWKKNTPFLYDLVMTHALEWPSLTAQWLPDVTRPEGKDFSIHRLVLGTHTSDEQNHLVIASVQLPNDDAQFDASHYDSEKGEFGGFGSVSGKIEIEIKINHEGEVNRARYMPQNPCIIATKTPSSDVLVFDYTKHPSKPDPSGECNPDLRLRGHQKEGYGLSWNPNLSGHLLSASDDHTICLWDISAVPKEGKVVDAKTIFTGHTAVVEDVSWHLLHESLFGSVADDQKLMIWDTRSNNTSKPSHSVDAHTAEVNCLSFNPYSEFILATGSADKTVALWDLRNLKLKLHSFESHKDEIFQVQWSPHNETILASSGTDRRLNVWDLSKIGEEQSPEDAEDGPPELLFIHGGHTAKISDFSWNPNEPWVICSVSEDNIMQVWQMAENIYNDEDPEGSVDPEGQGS
T1 sequence (Q6ZN18 whole entry partner): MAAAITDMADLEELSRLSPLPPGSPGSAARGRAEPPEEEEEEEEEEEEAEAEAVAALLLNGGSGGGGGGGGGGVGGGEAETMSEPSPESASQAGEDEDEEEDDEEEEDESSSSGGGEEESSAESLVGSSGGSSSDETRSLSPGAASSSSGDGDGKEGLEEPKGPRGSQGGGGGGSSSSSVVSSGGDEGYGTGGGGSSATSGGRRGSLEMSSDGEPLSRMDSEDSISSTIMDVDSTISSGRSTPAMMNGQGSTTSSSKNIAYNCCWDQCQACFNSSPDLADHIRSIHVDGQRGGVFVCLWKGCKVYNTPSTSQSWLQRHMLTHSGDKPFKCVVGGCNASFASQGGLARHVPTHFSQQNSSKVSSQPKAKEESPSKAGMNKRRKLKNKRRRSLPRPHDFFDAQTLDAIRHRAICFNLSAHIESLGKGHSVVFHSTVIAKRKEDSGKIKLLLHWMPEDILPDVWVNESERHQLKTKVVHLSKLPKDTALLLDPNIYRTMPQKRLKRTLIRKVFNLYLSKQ
Chain of EZH2 (Q15910 whole entry): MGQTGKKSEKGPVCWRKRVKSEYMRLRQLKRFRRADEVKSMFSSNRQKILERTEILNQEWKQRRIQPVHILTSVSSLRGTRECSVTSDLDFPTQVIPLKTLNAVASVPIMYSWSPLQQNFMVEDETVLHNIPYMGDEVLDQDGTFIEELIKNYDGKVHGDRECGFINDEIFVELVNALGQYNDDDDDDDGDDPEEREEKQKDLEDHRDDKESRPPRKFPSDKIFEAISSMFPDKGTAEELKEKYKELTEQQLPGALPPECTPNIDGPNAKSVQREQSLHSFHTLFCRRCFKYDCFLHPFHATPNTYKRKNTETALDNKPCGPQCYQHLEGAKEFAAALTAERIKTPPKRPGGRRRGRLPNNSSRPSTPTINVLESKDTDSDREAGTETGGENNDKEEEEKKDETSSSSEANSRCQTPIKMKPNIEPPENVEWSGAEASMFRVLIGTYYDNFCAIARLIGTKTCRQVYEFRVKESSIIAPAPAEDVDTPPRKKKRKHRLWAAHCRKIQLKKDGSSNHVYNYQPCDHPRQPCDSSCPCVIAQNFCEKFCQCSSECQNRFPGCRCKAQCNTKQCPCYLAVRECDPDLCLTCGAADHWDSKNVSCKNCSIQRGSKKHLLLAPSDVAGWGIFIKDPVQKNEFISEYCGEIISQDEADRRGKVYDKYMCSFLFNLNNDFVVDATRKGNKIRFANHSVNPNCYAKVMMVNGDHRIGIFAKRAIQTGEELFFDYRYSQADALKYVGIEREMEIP
Chain of EZH2 (O75530 whole entry partner): as the sequence (O75530 whole entry partner) above
Chain of EZH2 (Q15022 whole entry partner): as the sequence (Q15022 whole entry partner) above
Chain of EZH2 (Q09028 whole entry partner): as the sequence (Q09028 whole entry partner) above
Chain of EZH2 (Q6ZN18 whole entry partner): as the sequence (Q6ZN18 whole entry partner) above

| Compound | GI50 (KMS-11) | GI50 (Mino) | GI50 (RPMI8226) | GI50 [1, 8] | AUC [2] | half-life [2] | GI50 (MV4-11) | GI50 (RS4;11) | Residual amount (%) of test compound after 1 hour of reaction, Dog [3] | Residual amount (%) of test compound after 1 hour of reaction, Rat [4] | GI50 (JeKo-1) | GI50 (SU-DHL-4) | GI50 [5] | GI50 (MM.1S) | Residual amount (%) of test compound after 1 hour of reaction, Mouse [6] | GI50 (Kasumi-1) | Residual amount (%) of test compound after 1 hour of reaction, Human [7] | IC50 (EZH2) | IC50 (EZH1) | GI50 [1] |
| --- | --- | --- | --- | --- | --- | --- | --- | --- | --- | --- | --- | --- | --- | --- | --- | --- | --- | --- | --- | --- |
| Cc1cc(C)c(CNC(=O)c2cc(Cl)c3c(c2C)O[C@@](C)([C@H]2CC[C@H](N(C)C)CC2)O3)c(=O)[nH]1 [Control B] | 25 nM | 2.5 nM | 7.8 nM | 1.3 to 15 nM | 3420 to 5000 ng·h/mL | 1 h | 6.1 nM | 62 nM | 83% | 81% | 71 nM | 21 nM | 0.57 nM | 2.3 nM | 50% | 324 nM | 65% | – | – | – |
| CCN(c1cc(-c2ccc(CN3CCOCC3)cc2)cc(C(=O)NCc2c(C)cc(C)[nH]c2=O)c1C)C1CCOCC1 [Control A, N-((4,6-dimethyl-2-oxo-1,2-dihydropyridin-3-yl)methyl)-5-(ethyl(tetrahydro-2H-pyran-4-yl)amino)-4-methyl-4′-(morpholinomethyl)-[1,1′-biphenyl]-3-carboxamide] | 554 nM | 225 nM | 315 nM | – | 4880 ng·h/mL | 0.6 h | 220 nM | 932 nM | 14% | – | 3580 nM | 281 nM | – | 204 nM | – | > 1000 nM | – | – | – | – |
| Cc1cc(C)c(CN2CCc3c(C)c4c(c(C)c3C2=O)OC(C)([C@H]2CC[C@H](N(C)C)CC2)O4)c(=O)[nH]1 (stereo partly drawn) [Compound 39, 6-((4,6-dimethyl-2-oxo-1,2-dihydropyridin-3-yl)methyl)-2-(trans-4-(dimethylamino)cyclohexyl)-2,4,9-trimethyl-7,8-dihydro-[1,3]dioxolo[4,5-g]isoquinolin-5(6H)-one] | – | – | – | 3.2 to 8.4 nM | 3650 ng·h/mL | – | – | – | – | – | – | – | 0.76 to 0.99 nM | – | 80% | – | 62% | 1.2 to 6.2 nM | 9.7 to 30 nM | – |
| Cc1cc(C)c(CN2CCc3c(Br)c4c(c(C)c3C2=O)OC(C)([C@H]2CC[C@H](N(C)C)CC2)O4)c(=O)[nH]1 (single isomer, unassigned) [Compound 49, 9-bromo-6-((4,6-dimethyl-2-oxo-1,2-dihydropyridin-3-yl)methyl)-2-(trans-4-(dimethylamino)cyclohexyl)-2,4-dimethyl-7,8-dihydro-[1,3]dioxolo[4,5-g]isoquinolin-5(6H)-one] | 8.1 nM | 2 nM | 6.4 nM | – | 9960 ng·h/mL | 2.9 h | 3.9 nM | 24 nM | 74% | 84% | 42 nM | 11 nM | 0.21 nM | 1.4 nM | 52% | 51 nM | 67% | – | – | 1.2 to 9.7 nM |

Source: US12344618B2, “Heterotricyclic derivative compound and use of same” (HANMI PHARMACEUTICAL CO., LTD., priority 2019, dated 2025)
